Measured values as given in ChEMBL document CHEMBL5729087, “Pyranopyrazole and pyrazolopyridine immunomodulators for treatment of autoimmune diseases” (2022).

Experiments:
Coagulation factor XII = molecular target: T1, Coagulation factor XII (Homo sapiens, UniProt P00748); assay: Factor XIIa (FXIIa) Inhibitory Activity: In a 96-well clear bottom plate, 80 μl of assay buffer was added to each well. Assay buffer consists of 0.5× Hank's Balanced Salt Solution (Invitrogen), buffered with 25 mM HEPES pH 7.4 (Invitrogen) and 0.5× Tris-buffered saline with Tween-20 0.05% (Santa Cruz Biotechnology). Test compounds were first dissolved in DMSO (Sigma) and then 4 μl were added to test wells containing assay buffer. Serial dilutions using an automated multi-channel pipette were used to generate a concentration range of approximately 1-100 μM. Human FXIIa (Enzyme Research Labs) was diluted in assay buffer to a final concentration of 12.5 nM. 80 μl of this enzyme solution was added to the assay wells. The enzyme/compound mixtures were incubated for 10 minutes at room temperature. Chromogenic substrate (Pefachrome XIIa; Enzyme Research Labs) was added to assay wells at a final concentration of 400 μM. The assay plate was spun for 1 minute at 1500 g and then read at 37° C. in a SpectraMax M2 plate reader (λ=405 nm). Activity was quantified as the rate of change in absorbance, which corresponds to the rate of substrate cleavage. IC50 values were determined as the concentration of inhibitor that produced 50% of the rate of change of control wells without any inhibitor. For compounds with activity <1 μM, the assay was repeated with a lower concentration range, typically from 10-1000 nM.
T1 sequence (P00748 whole entry): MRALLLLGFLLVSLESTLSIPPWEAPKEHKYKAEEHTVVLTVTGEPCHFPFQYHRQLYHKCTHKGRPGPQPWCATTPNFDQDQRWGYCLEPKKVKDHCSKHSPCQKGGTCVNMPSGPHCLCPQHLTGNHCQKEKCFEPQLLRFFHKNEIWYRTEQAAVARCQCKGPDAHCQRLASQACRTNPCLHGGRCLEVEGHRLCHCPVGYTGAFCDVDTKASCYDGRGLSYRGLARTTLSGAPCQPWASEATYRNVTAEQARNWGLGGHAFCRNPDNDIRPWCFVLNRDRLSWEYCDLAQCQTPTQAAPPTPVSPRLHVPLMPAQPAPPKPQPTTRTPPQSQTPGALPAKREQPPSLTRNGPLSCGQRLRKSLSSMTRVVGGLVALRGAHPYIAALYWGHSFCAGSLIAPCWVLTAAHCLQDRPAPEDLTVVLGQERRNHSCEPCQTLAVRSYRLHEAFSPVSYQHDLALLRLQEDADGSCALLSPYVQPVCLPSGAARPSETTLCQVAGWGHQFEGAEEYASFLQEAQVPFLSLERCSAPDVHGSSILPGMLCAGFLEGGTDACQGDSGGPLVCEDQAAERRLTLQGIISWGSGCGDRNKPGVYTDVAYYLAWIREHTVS

Prothrombin = Prothrombin (Homo sapiens, UniProt P00734); assay: Counterscreens for Selectivity: Thrombin. In a 96-well white opaque plate, 80 μl of assay buffer was added to each well. Test compounds were added, and serially diluted as above, to generate a concentration range of approximately 1-100 μM. Human alpha-thrombin (Enzyme Research Labs) was diluted in assay buffer to a final concentration of 12.5 nM. 80 μl of this enzyme solution was added to the assay wells. The enzyme/compound mixtures were incubated for 10 minutes at room temperature. Fluorogenic substrate (Boc-Val-Pro-Arg-7-amido-4-methylcoumarin; Sigma) was added to assay wells at a final concentration of 20 μM. The assay plate was spun for 1 minute at 1500 g and then read at 37° C. in a SpectraMax M2 plate reader (λex=380 nm and λem=460 nm). Activity was quantified as the rate of change in fluorescence, which corresponds to the rate of substrate cleavage. IC50 values were determined as the concentration of inhibitor that produced 50% of the rate of change of control wells without any inhibitor. For compounds with activity <1 μM, the assay was repeated with a lower concentration range, typically from 10-1000 nM.

Compound | IC50 (Coagulation factor XII) [µM] | IC50 (Prothrombin) [µM]
CC(C)N1CCc2c(N)nn(C(=O)C3CCNc4ccc(F)cc43)c2C1 (stereo not given) | 60 | 
Cc1cc2c(C(=O)n3nc4c(c3N)CCNC4)cccc2[nH]1 | 0.15 | > 150
CN(C)S(=O)(=O)N1CCc2c(nn(C(=O)C3CCNc4ccccc43)c2N)C1 (stereo not given) | 0.25 | > 75
